The source of these data is the Kinase Knowledgebase extract (Sharma et al. 2016).

pIC50: −log10 of the molar value.

The experiment has as its target PIK3CB;PIK3CG;PIK3CD;PIK3CA (human) (UniProt P48736). Kind of experiment: Enzyme Assay.

`CC1CC(C)CC(n2nc(C(=O)N3CCOCC3)c3c2-c2ccccc2S(=O)(=O)C3)C1` (stereo unspecified): the pIC50 – broadly, −log10 of the IC50, conventionally taken in molar units – was 5.10.
Next, `Cc1cccc2c1S(=O)(=O)Cc1c(C(=O)N3CCOCC3)nn(-c3ccccc3)c1-2`: 5.76; `O=C(c1nn([C@H]2CCN(C3CCOCC3)C2)c2c1CS(=O)(=O)c1ccccc1-2)N1CCOCC1`: 5.84; `NCc1ccc(-n2nc(C(=O)N3CCOCC3)c3c2-c2ccccc2S(=O)(=O)C3)cc1`: 6.46.
`CN1CCN(C(=O)c2cccc(-n3nc(C(=O)N4CCOCC4)c4c3-c3ccccc3S(=O)(=O)C4)c2)CC1` gave a pIC50 of 6.60. This pIC50 and that of the compound before are within 0.2 log units of each other.
The same measure for `O=C(c1nn(-c2ccccc2)c2c1CS(=O)(=O)c1ccccc1-2)N1CCCOCC1`: 5.04.
Next, `O=C(c1nn(C2CCOCC2)c2c1CS(=O)(=O)c1c(F)cccc1-2)N1CCOCC1`: 5.99; `CN1CCC(OCCN2CCC[C@H](n3nc(C(=O)N4CCOCC4)c4c3-c3ccccc3S(=O)(=O)C4)C2)CC1`: 7.70; `COCCN1CCC[C@H](n2nc(C(=O)N3CCOCC3)c3c2-c2ccc(OC)cc2S(=O)(=O)C3)C1`: 7.03.
Next, `O=C(c1nn([C@H]2CCCN(CCF)C2)c2c1CS(=O)(=O)c1ccccc1-2)N1CCOCC1`: 6.70; `O=C(c1nn(C2CCCN(CC3CCOCC3)C2)c2c1CS(=O)(=O)c1ccccc1-2)N1CCOCC1` (stereo unspecified): 7.96; `CC(C)CCOC1CCN(Cc2cccc(-n3nc(C(=O)N4CCOCC4)c4c3-c3ccccc3S(=O)(=O)C4)c2)C1` (stereo unspecified): 6.41.
In turn, `O=C(c1nn(-c2cccc(Br)c2)c2c1CS(=O)(=O)c1ccccc1-2)N1CCOCC1` gave a pIC50 of 6.21.
Turning to `O=C(c1nn(C2CCCN(Cc3ccccc3)C2)c2c1CS(=O)(=O)c1ccccc1-2)N1CCOCC1` (stereo unspecified), the pIC50 is 6.27.
Next, `CC1COCCN1C(=O)c1nn(-c2ccccc2)c2c1CS(=O)(=O)c1ccccc1-2` (stereo unspecified): 4.86; `O=C(c1nn([C@H]2CCCN(c3ccncc3)C2)c2c1CS(=O)(=O)c1ccccc1-2)N1CCOCC1`: 6.88; `O=C(c1nn(-c2cccc(CN3CCCC(F)(F)C3)c2)c2c1CS(=O)(=O)c1ccccc1-2)N1CCOCC1`: 5.81.
The same measure for `COCCNc1ccc2c(c1)-c1c(c(C(=O)N3CCOCC3)nn1C1CCCCC1)CS2(=O)=O`: 5.86; for `O=C(c1nn(-c2cccc(-c3cccnc3)c2)c2c1CS(=O)(=O)c1ccccc1-2)N1CCOCC1`: 6.55; for `O=C(c1nn(-c2ccc(CN3CC(F)(F)C3)cc2)c2c1CS(=O)(=O)c1ccccc1-2)N1CCOCC1`: 6.40.
The same measure for `Cn1nc(C(=O)N2CCOCC2)c2c1-c1cc([N+](=O)[O-])ccc1S(=O)(=O)C2`: 5.56; for `CC1CN(CCN2CCC[C@H](n3nc(C(=O)N4CCOCC4)c4c3-c3ccccc3S(=O)(=O)C4)C2)CCO1` (stereo partly specified): 7.54; for `COC1CCN(C(=O)c2cccc(-n3nc(C(=O)N4CCOCC4)c4c3-c3ccccc3S(=O)(=O)C4)c2)CC1`: 6.52.
As to `O=C(Nc1cccc(-n2nc(C(=O)N3CCOCC3)c3c2-c2ccccc2S(=O)(=O)C3)c1)N1CCOCC1`, the pIC50 was 5.45.
`O=C(c1nn(C2CCCN(CCN3CCC(F)CC3)C2)c2c1CS(=O)(=O)c1ccccc1-2)N1CCOCC1` (stereo unspecified) showed a pIC50 of 7.47.
The same measure for `CCCCNc1ccc2c(c1)S(=O)(=O)Cc1c(C(=O)N3CCOCC3)nn(-c3ccccc3)c1-2`: 5.01.
